# PubChem BioAssay AID1549 (Sanford-Burnham Center for Chemical Genomics, 2009)
# Activity calls are given as the source filed them. How the calls were made is not given here. Where a SMILES comes first, the peptide text is derived from it.
# Target: Influenza A virus M2 proton channel (A/TW/4845/1999 H1N1)
# Assay: NMR binding screen, influenza A virus M2 proton channel, Kd (AID 1549)
# Conditions: M2 protein
row,SMILES,Kd
1,NC(CC(=O)O)C(=O)Nc1ccc(Cl)cc1 (configuration not stated),> 4 mM (inactive)
2,O=C(c1cccc(-n2cnnn2)c1)N1CCOCC1,> 4 mM (inactive)
3,CC(=O)N[C@@H](CC(=O)O)C(=O)N[C@@H](CCC(=O)O)C(=O)O (Ac-Asp-Glu-OH),> 4 mM (inactive)
4,O=C1CNCc2[nH]c3ccccc3c2N1c1ccccc1,> 4 mM (inactive)
5,CC(CCC(=O)O)[C@H]1CCC2C3CC[C@@H]4C[C@H](O)CC[C@]4(C)C3C[C@H](O)[C@@]21C (some centres not stated),> 4 mM (inactive)
6,O=C(NC(O)C(=O)c1ccccc1)c1ccco1 (configuration not stated),> 4 mM (inactive)
7,Cc1n[nH]c(C)c1CN,> 4 mM (inactive)
8,COC(=O)c1ccc2snnc2c1,> 4 mM (inactive)
9,CS(=O)(=O)c1ccc(N)cc1,> 4 mM (inactive)
10,NC(C(=O)O)C(O)C(=O)O (configuration not stated),> 4 mM (inactive)
11,COc1ccc(-c2coc3cc(OC)cc(OC)c3c2=O)cc1,> 4 mM (inactive)
12,Nc1cccc(F)c1-c1ncon1,> 4 mM (inactive)
13,CC(C)n1c(-c2ccncc2)n[nH]c1=S,> 4 mM (inactive)
14,CNC(=O)c1c(O)c2ccccc2[nH]c1=O,> 4 mM (inactive)
15,CN1CCN(C(=S)NC(=O)c2ccn(C)n2)CC1,> 4 mM (inactive)
16,N#C/C(=C\c1ccc[nH]1)S(=O)(=O)c1ccccc1,> 4 mM (inactive)
17,Nc1cccc2nsnc12,> 4 mM (inactive)
18,Cc1nnc(NCCN2CCOCC2)[nH]c1=O,> 4 mM (inactive)
19,O=C(CSc1ccnc(=O)[nH]1)NCc1ccco1,> 4 mM (inactive)
20,COc1ccc2[nH]cc(CCN(C)C)c2c1,> 4 mM (inactive)
21,Cc1cc(-c2ccccc2)nc2cc(C(N)=O)nn12,> 4 mM (inactive)
22,CC1(C)C[C@@H]2C(=O)CC[C@H]3O[C@]3(C)CC[C@H]21,> 4 mM (inactive)

row,SMILES,Kd
1,CCn1ccc(C(=O)Nc2nccs2)n1,> 4 mM (inactive)
2,OCc1cccc2c1OCO2,> 4 mM (inactive)
3,COc1ccc2c(c1)OC[C@@H](Cc1ccc(OC)c(OC)c1)[C@H]2O,> 4 mM (inactive)
4,OCn1nnn(-c2ccccc2)c1=S,> 4 mM (inactive)
5,CC(=O)Oc1c2c(c(CC=C(C)C)c3c1C(=O)C1=C[C@@H]4CC5C(C)(C)OC(C/C=C(\C)C(=O)O)(C4=O)[C@@]15O3)OC(C)(CCC=C(C)C)C=C2 (some centres not stated),> 4 mM (inactive)
6,CSc1ccc2nnc(-c3cccnc3)n2n1,> 4 mM (inactive)
7,OC12C=CC(CC1)CC2,> 4 mM (inactive)
8,CC(=O)N1CCc2cc(NC(=O)c3ccc(C)cc3)ccc21,> 4 mM (inactive)
9,COC(=O)[C@@H]1C(O)CC[C@H]2CN3CCc4c([nH]c5ccccc45)[C@@H]3C[C@@H]21 (some centres not stated),> 4 mM (inactive)
10,CC(=O)CC(=O)N1C(O)CC[N+]1(C)C (configuration not stated),> 4 mM (inactive)
11,COc1ccc2c(c1)C(NC(C)=O)C(=O)N2C (configuration not stated),> 4 mM (inactive)
12,CC(C)CCCC(C)[C@H]1CCC2C3CC=C4C[C@@H](O)CC[C@]4(C)C3CC[C@@]21C (some centres not stated),> 4 mM (inactive)
13,CCCS(=O)(=O)N1CCN(c2ccccn2)CC1,> 4 mM (inactive)
14,c1cnc(N2CCNCC2)nc1,> 4 mM (inactive)
15,Cn1ncc(N2CCOCC2)c(Cl)c1=O,> 4 mM (inactive)
16,CNc1nc(N)c(C(=O)C(C)(C)C)s1,> 4 mM (inactive)
17,Nc1ccc2c(c1)CCCC2=O,> 4 mM (inactive)
18,NC1C2CC3CC1CC(O)(C3)C2 (configuration not stated),> 4 mM (inactive)
19,Cc1cc(F)c(F)c(C(=O)NC2CC2)c1Cl,> 4 mM (inactive)
20,Cc1cc(C)n2nc(N)nc2n1,> 4 mM (inactive)
21,O=C1C2CC=C(Cl)CC2C(=O)N1c1ccccc1O (configuration not stated),> 4 mM (inactive)
22,CC1(C)C2CC[C@]3(C)C(C(=O)C=C4[C@H]5C[C@@](C)(C(=O)O)CC[C@]5(C)CC[C@]43C)[C@@]2(C)CC[C@@H]1O (some centres not stated),> 4 mM (inactive)

row,SMILES,Kd
1,CSc1ccccc1C(=O)N1CCOCC1,> 4 mM (inactive)
2,CN1CCC=C(C(=O)O)C1,> 4 mM (inactive)
3,O=c1cnnc(Nc2ccc(O)cc2)[nH]1,> 4 mM (inactive)
4,c1ccc(-c2nsc(N3CCCNCC3)n2)cc1,> 4 mM (inactive)
5,O=C1NC(=O)C(C(C[N+](=O)[O-])c2ccc(O)cc2)C(=O)N1 (configuration not stated),> 4 mM (inactive)
6,Cc1c(N=Cc2ccc[nH]2)c(=O)n(-c2ccccc2)n1C,> 4 mM (inactive)
7,Cc1ccccc1NC(=O)C1CC(=O)N=C(N)S1 (configuration not stated),> 4 mM (inactive)
8,CCOC(=O)CNC(=O)CSc1nnc(C)c(=O)[nH]1,> 4 mM (inactive)
9,OC(CCl)c1ccc(-n2cncn2)cc1 (configuration not stated),> 4 mM (inactive)
10,O=C(NCc1cccc(Cl)c1)c1ccco1,> 4 mM (inactive)
11,O=C(OC[C@H]1O[C@H](OC(=O)c2cc(O)c(O)c(OC(=O)c3cc(O)c(O)c(O)c3)c2)[C@H](OC(=O)c2cc(O)c(O)c(OC(=O)c3cc(O)c(O)c(O)c3)c2)[C@@H](OC(=O)c2cc(O)c(O)c(OC(=O)c3cc(O)c(O)c(O)c3)c2)[C@@H]1OC(=O)c1cc(O)c(O)c(OC(=O)c2cc(O)c(O)c(O)c2)c1)c1cc(O)c(O)c(OC(=O)c2cc(O)c(O)c(O)c2)c1,> 4 mM (inactive)
12,COc1ccccc1NC(=O)c1ccc(C)s1,> 4 mM (inactive)
13,CC(C)NC(=O)Cc1c(O)c2ccccc2[nH]c1=O,> 4 mM (inactive)
14,CSc1ccccc1NC(=O)c1cccnc1,> 4 mM (inactive)
15,CC(C)=CCCC1(C)C=Cc2c(O)c3c(c(CC=C(C)C)c2O1)OC12C(=CCCC1C(C)(C)O[C@@]2(C/C=C(\C)C(=O)O)C(=O)O)C3=O (some centres not stated),> 4 mM (inactive)
16,Nc1ccc2c(c1)N1CCN=C1S2,> 4 mM (inactive)
17,CCn1cnc2cc(NCc3ccncc3)ccc21,> 4 mM (inactive)
18,O=C(c1cnsn1)N1CCN(c2ccccn2)CC1,> 4 mM (inactive)
19,Cc1c(C(=O)Nc2ccccn2)oc2ccccc12,> 4 mM (inactive)
20,O=C(O)CCC(=O)c1cccc2ccccc12,> 4 mM (inactive)
21,COc1ccc2c(c1)[nH]c1c(C)nccc12,> 4 mM (inactive)
22,CCC1(CC)C(=O)N=C(N)NC1=O,> 4 mM (inactive)

row,SMILES,Kd
1,COc1ccc2cc1Oc1ccc(cc1)C[C@H]1c3cc(c(OC)cc3CCN1C)Oc1c(OC)c(OC)cc3c1[C@H](C2)N(C)CC3,> 4 mM (inactive)
2,O=C(O)c1[nH]nc2c1COc1ccccc1-2,> 4 mM (inactive)
3,CCCCN1C(=O)C2CC/C(=N/O)CC2C1=O (configuration not stated),> 4 mM (inactive)
4,O=S1(=O)CCC(NCCO)C1 (configuration not stated),> 4 mM (inactive)
5,OCc1csc(-c2cccs2)n1,> 4 mM (inactive)
6,O=C(CSc1ccnc(=O)[nH]1)NCc1ccccc1,> 4 mM (inactive)
7,C[C@H]1O[C@@H](O[C@H]2[C@@H](O)C[C@H](O[C@H]3[C@@H](O)C[C@H](O[C@H]4CC[C@]5(C)C6C[C@@H](O)[C@]7(C)[C@@H](C8=CC(=O)OC8)CC[C@]7(O)C6CC[C@@H]5C4)O[C@@H]3C)O[C@@H]2C)C[C@H](O)[C@@H]1O (some centres not stated),> 4 mM (inactive)
8,Nc1ccc(-c2cn3c(n2)SCC3)cc1,> 4 mM (inactive)
9,Nc1cc(N)nc(SCc2cccnc2)n1,> 4 mM (inactive)
10,CC1(C)C2C[C@@H](O)[C@]3(C)C(CC[C@@]4(C)[C@H](c5ccoc5)OC(=O)[C@H]5O[C@]543)[C@@]2(C)[C@@H](O)C[C@H]1O (some centres not stated),> 4 mM (inactive)
11,CNC(=O)C(=O)Nc1c(C)cccc1C,> 4 mM (inactive)
12,Cc1cc(S(=O)(=O)N2CCOCC2)ccc1F,> 4 mM (inactive)
13,COc1cc(NC(=O)c2ccccc2)c(C)cc1N,> 4 mM (inactive)
14,O=C(CSC1=NCCS1)N1CCc2ccccc21,> 4 mM (inactive)
15,CC1(C)C(=O)CC[C@@]2(C)C1C[C@@H](O)[C@@]1(C)C3=CC(=O)O[C@@H](c4ccoc4)[C@]3(C)CCC21 (some centres not stated),> 4 mM (inactive)
16,CC(=O)O[C@@H]1CC2C(C)(C)C=CC(=O)[C@]2(C)C2CC[C@@]3(C)[C@H](c4ccoc4)OC(=O)C4OC43[C@@]21C (some centres not stated),> 4 mM (inactive)
17,Cc1ccc(S(=O)(=O)CC(=O)N(C)C)cc1,> 4 mM (inactive)
18,O=C(O)CC1C(=O)NCCN1Cc1cccs1 (configuration not stated),> 4 mM (inactive)
19,Nc1nncn1C(=O)c1ccccc1Cl,> 4 mM (inactive)
20,CNC(=O)n1ccc(C(=O)N2CCCCC2)n1,> 4 mM (inactive)
21,O=C(O)c1cccc2nsnc12,> 4 mM (inactive)
22,CC1CCN(S(=O)(=O)N(C)C)CC1,> 4 mM (inactive)

row,SMILES,Kd
1,Cc1ccc(=O)[nH]c1,> 4 mM (inactive)
2,O=C(O)C1Cc2ccccc2O1 (configuration not stated),> 4 mM (inactive)
3,COC(=O)Cc1cc(=O)n(-c2ccccc2)[nH]1,> 4 mM (inactive)
4,CCCCCC1C(=O)CCC1CC(=O)OC (configuration not stated),> 4 mM (inactive)
5,O=C(CSc1cccc2cccnc12)N1CCCC1,> 4 mM (inactive)
6,c1ccc(-c2noc(-c3ccc4c(c3)OCO4)n2)nc1,> 4 mM (inactive)
7,CC(=O)Nc1cccs1,> 4 mM (inactive)
8,NC(=O)CSc1ccc2nnc(-c3ccccc3)n2n1,> 4 mM (inactive)
9,CN(C)C(=O)CSc1nc2ccccc2c(=O)[nH]1,> 4 mM (inactive)
10,CN1C(=O)C2C=CC1C1C(=O)N(c3ccccc3)C(=O)C21 (configuration not stated),> 4 mM (inactive)
11,NC(=O)CSc1nnc(-c2ccncc2)o1,> 4 mM (inactive)
12,COc1ccccc1NC(=O)c1cc[n+]([O-])cc1,> 4 mM (inactive)
13,NCc1c[nH]c2ccccc12,> 4 mM (inactive)
14,O=C(O[C@@H]1Cc2c(O)cc(O)cc2O[C@@H]1c1cc(O)c(=O)c2c(O)c(O)cc([C@H]3Oc4cc(O)cc(O)c4C[C@H]3OC(=O)c3cc(O)c(O)c(O)c3)c2c1)c1cc(O)c(O)c(O)c1,> 4 mM (inactive)
15,CCC(=O)OC1[C@@H]2CC3=C4CC(=O)O[C@@H](c5ccoc5)[C@]4(C)CCC3C(C)(C2=O)[C@@H](CC(=O)OC)C1(C)C (some centres not stated),> 4 mM (inactive)
16,CC(=O)O[C@@H]1CC2C(C)(C)CCC(=O)[C@]2(C)C2CC[C@@]3(C)[C@H](c4ccoc4)OC(=O)C4OC43[C@@]21C (some centres not stated),> 4 mM (inactive)
17,COc1ccc2ccc(=O)oc2c1CC=C(C)C,> 4 mM (inactive)
18,CC(=O)Oc1cc2c(C(C)=O)coc2c2ccccc12,> 4 mM (inactive)
19,O=C1C=CC(=O)N1c1ccccc1O,> 4 mM (inactive)
